Measured values as given in PubChem BioAssay (NCI).
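In this assay, cells in 96-well plates receive the compound at five concentrations for 48 hours. Endpoints are linearly interpolated between the surrounding concentrations. At the GI50, growth is halved. TGI is the concentration that stops growth completely.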

Tests used:
Experiment in all cases: NCI-60 cell line screen, 48 h
SW-620 colon = test system: SW-620 colon
HOP-62 NSCLC = test system: HOP-62 NSCLC
EKVX NSCLC = test system: EKVX NSCLC
CAKI-1 renal = test system: CAKI-1 renal
IGROV1 ovarian = test system: IGROV1 ovarian
U251 CNS = test system: U251 CNS
COLO 205 colon = test system: COLO 205 colon
A549 NSCLC = test system: A549 NSCLC
PC-3 prostate = test system: PC-3 prostate
SNB-19 CNS = test system: SNB-19 CNS
KM12 colon = test system: KM12 colon
MDA-MB-435 = test system: MDA-MB-435
TK-10 renal = test system: TK-10 renal
SN12C renal = test system: SN12C renal
HS 578T breast = test system: HS 578T breast
NCI-H226 lung = test system: NCI-H226 lung
NCI-H522 lung = test system: NCI-H522 lung
HL-60(TB) leukemia = test system: HL-60(TB) leukemia

## C/C(=C\c1ccccc1)n1c(=O)cc(C)n1C
SW-620 colon
  TGI: > 100 µM
HOP-62 NSCLC
  TGI: > 100 µM
EKVX NSCLC
  TGI: > 100 µM
CAKI-1 renal
  TGI: > 100 µM
IGROV1 ovarian
  TGI: > 100 µM
U251 CNS
  TGI: > 100 µM
COLO 205 colon
  TGI: > 100 µM
A549 NSCLC
  TGI: > 100 µM
PC-3 prostate
  TGI: > 100 µM
SNB-19 CNS
  TGI: > 100 µM
KM12 colon
  TGI: > 100 µM
MDA-MB-435
  TGI: > 100 µM
TK-10 renal
  TGI: > 100 µM
SN12C renal
  TGI: > 100 µM
HS 578T breast
  TGI: > 100 µM
NCI-H226 lung
  TGI: > 100 µM

## H-KIFKKFKTIIKKVWRIFGRF-NH2
NCI-H522 lung
  GI50: 2.34 µM
  TGI: > 100 µM
HL-60(TB) leukemia
  GI50: 5.23 µM
  TGI: 57.1 µM
